Experimental data: patent US8710045B2, “Agents for preventing and treating disorders involving modulation of the ryanodine receptors” (The Trustees of Columbia University in the City of New York, priority 2004, dated 2014)

Assays:
[1] = target: T1, L-type Ca2+ channels (Mus musculus, UniProt Q01815); assay: L-type Ca2+ channel current, whole-cell patch clamp in isolated mouse cardiomyocytes; type: cell-based; details: Ba2+ as charge carrier
T1 construct: currents through L-type Ca^2+ channels in isolated mouse cardiomyocytes are recorded; endogenous in cells; host or cells: isolated mouse cardiomyocytes
Procedure: The final pellets are pooled and resuspended in imidazole buffer (final concentration≈10 μg/μl). […] Immunoblots are developed using an anti-FKBP antibody (1:3,000 dilution). The amount of rebinding is quantified using densitometry of Western blots and is compared to the amount of FKBP associated with RyR in non-phosphorylated SR. […] K2ATP, 5; HEPES, 10; aspartic acid, 50; pH 7.4 (CsOH). […] Drugs are applied by a local solution changer and reach the cell membrane within 1 s.

[2] = system: Wild-type mice; assay: Chronic heart failure after myocardial infarction (LAD ligation) in wild-type mice; type: in vivo, mouse; details: plasma concentration 200 nM, vs placebo
Procedure: Wild-type mice are subjected to permanent ligation of the left anterior descending coronary artery resulting in myocardial infarction. Seven days following myocardial infartion, mice are treated with S36 (plasma concentration 200 nM) or placebo.

[3] = target: T2, RyR1 (Mus musculus, UniProt E9PZQ0); assay: RyR1 immunoprecipitation from soleus muscle after 21 days of exercise, calstabin1 western blot; type: in vivo; details: subcutaneous mini-osmotic pump
T2 construct: RyR1 was immunoprecipitated from soleus muscle homogenates of mice following 21 days of exercise; from tissue; host or cells: mouse hind-limb skeletal muscle (soleus, EDL; SR microsomes for bilayer recording)
T2 sequence (E9PZQ0 whole entry): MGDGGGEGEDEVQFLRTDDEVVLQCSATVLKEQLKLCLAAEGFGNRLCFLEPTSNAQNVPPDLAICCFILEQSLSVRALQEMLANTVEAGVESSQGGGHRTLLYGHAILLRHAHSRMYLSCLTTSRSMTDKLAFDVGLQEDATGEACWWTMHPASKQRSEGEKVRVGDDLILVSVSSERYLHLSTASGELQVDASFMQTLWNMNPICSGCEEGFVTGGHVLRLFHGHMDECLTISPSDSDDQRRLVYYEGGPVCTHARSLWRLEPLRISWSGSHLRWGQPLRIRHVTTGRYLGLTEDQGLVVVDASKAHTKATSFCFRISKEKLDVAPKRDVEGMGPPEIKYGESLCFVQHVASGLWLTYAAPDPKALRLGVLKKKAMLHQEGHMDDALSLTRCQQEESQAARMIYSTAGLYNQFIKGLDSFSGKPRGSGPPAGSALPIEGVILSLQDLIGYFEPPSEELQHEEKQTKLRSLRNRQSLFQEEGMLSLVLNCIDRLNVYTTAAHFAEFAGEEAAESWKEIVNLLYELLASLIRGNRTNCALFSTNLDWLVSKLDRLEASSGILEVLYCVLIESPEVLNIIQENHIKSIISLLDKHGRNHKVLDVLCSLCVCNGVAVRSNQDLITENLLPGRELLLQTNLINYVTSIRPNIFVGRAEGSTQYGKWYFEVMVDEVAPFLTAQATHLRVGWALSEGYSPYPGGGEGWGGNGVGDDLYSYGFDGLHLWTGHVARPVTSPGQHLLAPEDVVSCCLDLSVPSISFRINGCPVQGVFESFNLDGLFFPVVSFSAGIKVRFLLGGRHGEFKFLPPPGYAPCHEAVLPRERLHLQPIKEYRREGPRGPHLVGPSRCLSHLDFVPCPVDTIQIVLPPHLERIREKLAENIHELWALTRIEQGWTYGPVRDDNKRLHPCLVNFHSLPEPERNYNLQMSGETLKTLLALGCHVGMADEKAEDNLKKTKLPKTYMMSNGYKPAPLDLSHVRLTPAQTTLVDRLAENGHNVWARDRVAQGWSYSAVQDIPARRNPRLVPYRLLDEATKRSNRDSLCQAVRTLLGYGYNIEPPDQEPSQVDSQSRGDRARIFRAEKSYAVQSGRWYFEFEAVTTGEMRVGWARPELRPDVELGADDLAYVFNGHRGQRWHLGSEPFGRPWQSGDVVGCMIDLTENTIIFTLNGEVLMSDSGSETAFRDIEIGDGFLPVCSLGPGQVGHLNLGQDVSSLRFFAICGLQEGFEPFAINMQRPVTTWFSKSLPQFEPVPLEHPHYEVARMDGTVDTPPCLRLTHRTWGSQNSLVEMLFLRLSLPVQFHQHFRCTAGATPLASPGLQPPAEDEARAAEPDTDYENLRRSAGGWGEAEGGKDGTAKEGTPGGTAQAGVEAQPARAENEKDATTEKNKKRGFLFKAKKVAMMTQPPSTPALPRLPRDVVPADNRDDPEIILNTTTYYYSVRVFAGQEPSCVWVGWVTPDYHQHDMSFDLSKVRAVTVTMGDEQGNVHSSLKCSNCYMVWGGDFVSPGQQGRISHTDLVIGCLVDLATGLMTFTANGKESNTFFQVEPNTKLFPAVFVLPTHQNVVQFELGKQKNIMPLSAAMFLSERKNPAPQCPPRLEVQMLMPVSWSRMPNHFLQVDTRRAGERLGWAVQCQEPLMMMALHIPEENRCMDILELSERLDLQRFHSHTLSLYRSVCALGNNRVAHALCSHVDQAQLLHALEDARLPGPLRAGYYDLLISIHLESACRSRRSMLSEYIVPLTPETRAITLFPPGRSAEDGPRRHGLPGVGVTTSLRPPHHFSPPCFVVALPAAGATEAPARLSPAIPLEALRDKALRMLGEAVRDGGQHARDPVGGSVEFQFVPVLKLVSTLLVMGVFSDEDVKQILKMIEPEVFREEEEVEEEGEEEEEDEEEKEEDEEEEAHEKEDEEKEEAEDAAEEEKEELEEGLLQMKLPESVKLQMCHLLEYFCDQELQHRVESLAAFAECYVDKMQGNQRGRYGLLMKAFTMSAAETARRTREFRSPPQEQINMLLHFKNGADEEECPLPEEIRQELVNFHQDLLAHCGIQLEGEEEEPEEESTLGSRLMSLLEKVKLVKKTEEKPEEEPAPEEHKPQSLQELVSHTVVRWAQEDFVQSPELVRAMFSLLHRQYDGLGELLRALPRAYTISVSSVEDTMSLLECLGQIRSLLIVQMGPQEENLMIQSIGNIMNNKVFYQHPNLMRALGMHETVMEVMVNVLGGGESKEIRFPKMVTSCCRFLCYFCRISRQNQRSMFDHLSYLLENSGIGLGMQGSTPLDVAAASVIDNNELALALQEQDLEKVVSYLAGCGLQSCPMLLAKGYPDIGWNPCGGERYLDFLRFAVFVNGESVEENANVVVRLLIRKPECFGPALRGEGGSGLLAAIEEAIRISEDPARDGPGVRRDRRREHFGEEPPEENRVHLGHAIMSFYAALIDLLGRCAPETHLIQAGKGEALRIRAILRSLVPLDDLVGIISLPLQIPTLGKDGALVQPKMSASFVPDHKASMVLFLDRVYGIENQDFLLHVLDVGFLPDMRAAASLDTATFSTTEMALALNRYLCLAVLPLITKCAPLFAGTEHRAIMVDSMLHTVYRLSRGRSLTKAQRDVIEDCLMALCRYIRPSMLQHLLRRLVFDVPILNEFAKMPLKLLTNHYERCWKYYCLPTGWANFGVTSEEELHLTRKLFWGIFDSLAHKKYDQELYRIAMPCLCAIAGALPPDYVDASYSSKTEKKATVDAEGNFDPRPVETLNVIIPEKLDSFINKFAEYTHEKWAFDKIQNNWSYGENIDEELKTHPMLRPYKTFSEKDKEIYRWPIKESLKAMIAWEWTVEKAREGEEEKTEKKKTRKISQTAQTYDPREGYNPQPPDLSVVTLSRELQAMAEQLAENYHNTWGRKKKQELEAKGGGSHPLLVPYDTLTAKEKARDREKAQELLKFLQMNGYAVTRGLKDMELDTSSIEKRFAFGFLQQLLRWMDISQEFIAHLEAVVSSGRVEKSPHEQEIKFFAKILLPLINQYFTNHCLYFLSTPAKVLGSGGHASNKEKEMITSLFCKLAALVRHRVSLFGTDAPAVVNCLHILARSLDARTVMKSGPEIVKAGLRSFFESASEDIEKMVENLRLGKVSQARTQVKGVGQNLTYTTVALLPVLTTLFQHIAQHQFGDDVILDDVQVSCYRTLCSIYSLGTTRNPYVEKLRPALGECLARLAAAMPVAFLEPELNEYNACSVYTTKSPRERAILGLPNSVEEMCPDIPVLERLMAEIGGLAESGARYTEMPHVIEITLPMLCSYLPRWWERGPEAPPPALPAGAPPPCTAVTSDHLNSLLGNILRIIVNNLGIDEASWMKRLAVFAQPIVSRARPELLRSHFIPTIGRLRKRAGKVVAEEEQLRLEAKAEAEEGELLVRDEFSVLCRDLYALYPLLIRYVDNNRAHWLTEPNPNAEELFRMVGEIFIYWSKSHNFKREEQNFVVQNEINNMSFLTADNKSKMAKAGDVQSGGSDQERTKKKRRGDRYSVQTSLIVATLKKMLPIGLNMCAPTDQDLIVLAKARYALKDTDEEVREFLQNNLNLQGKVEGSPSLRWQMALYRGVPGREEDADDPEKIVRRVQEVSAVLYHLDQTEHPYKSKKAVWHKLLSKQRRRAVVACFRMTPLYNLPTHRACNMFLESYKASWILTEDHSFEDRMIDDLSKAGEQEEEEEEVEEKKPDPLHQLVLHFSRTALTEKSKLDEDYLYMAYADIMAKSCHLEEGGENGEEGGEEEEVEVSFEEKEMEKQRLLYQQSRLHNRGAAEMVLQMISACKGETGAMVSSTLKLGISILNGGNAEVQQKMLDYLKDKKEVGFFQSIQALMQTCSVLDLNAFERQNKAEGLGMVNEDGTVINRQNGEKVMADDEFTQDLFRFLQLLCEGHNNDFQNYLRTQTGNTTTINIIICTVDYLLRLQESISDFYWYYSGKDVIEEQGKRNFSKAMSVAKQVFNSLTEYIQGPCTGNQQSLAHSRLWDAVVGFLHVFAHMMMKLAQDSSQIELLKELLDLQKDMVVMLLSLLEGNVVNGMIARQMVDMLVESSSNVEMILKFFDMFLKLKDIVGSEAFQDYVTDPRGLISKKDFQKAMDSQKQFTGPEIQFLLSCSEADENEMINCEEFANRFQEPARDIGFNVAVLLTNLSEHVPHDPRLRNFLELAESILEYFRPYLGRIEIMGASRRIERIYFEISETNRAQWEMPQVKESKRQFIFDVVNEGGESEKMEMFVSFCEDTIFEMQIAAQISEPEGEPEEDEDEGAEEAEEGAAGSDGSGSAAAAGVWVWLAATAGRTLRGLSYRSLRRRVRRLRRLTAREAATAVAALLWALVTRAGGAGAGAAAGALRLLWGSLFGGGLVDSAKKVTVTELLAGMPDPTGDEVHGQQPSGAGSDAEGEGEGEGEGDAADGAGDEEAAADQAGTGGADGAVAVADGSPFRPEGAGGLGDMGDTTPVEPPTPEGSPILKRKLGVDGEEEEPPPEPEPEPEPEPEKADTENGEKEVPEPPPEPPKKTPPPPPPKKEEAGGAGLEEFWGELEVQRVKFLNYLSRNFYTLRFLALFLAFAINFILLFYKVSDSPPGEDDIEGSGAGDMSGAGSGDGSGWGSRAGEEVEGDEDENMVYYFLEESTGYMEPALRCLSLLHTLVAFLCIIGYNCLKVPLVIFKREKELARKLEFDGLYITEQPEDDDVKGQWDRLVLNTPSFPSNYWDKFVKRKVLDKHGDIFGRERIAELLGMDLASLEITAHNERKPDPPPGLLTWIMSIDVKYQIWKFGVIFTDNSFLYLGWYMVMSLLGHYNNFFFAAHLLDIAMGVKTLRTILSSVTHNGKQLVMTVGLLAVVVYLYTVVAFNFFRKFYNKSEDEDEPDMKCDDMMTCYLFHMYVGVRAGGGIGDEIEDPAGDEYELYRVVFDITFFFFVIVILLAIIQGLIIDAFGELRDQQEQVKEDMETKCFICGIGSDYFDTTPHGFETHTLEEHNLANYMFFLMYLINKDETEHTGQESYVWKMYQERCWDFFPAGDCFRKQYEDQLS
T2 sequence (P26883 2-108 partner limits assumed): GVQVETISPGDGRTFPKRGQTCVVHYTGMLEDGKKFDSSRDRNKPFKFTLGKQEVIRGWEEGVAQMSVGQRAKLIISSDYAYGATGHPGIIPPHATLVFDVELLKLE
Procedure: RyR1 was immunoprecipitated from soleus muscle homogenates of mice following 21 days of exercise with or without simultaneous subcutaneous mini-osmotic pump treatment with S36 and then western blotted back for RyR1, phospho-epitope specific RyR1-pS2844, and calstabin1 bound to the RyR1 macromolecular complex.
The samples were incubated with protein A Sepharose beads (Amersham Pharmacia) at 4° C. for 1 h, after which the beads were washed three times with buffer. Proteins were separated on SDS PAGE gels (6% for RyR2 and 15% for calstabin2) and transferred onto nitrocellulose membranes overnight (SemiDry transfer blot, Bio-Rad). After incubation with 5% nonfat milk to prevent non-specific antibody binding and a wash in Tris-buffered saline with 0.1% Tween-20, membranes were incubated for 1-2 h at room temperature with primary antibodies anti-calstabin (1:1,000), anti-RyR (5029; 1:5,000), or anti-phospho-RyR2-pSer2809 (1:5,000), which detects PKA-phosphorylated mouse RyR1-pSer2844 and RyR2-pSer2808. After three washes, membranes were incubated with horseradish peroxidase-labeled anti-rabbit IgG (1:5,000, Transduction Laboratories, Lexington, Ky.), and developed with an enhanced chemiluminescent detection system (Amersham Pharmacia). Band densities were quantified by using QUANTITY ONE software (Bio-Rad).

[4] = system: L-type calcium channel current; assay: S107 specificity: L-type calcium channel current; details: 500 nM
[5] = Plasma creatine kinase (CPK) activity in chronically exercised mice; type: in vivo, mouse
Procedure: Calpain and Creatine Kinase Assays: Tissue calpain activities were measured using a calpain activity assay kit (Calbiochem, San Diego, Calif.) (FIG. 42B). This assay is based on the degradation of the fluorescent peptide substrate Suc-LLVY-AMC (Calbiochem). Muscle homogenates were diluted to a final concentration of 600 μg/ml and the calpain activity in the homogenate was determined as per manufactures instructions. Plasma creatine kinase (CK) activity was assayed using the regent kit from Pointe Scientific, Inc. (Canton, Mich.) (FIG. 42A). Plasma samples (duplicates, 5 μl each) were added to 200 μl of CK reagent and the change in absorbance at 340 nm was recorded over 4 minutes using a plate reader. The average absorbance change per minute was used to determine the CPK levels as per manufacturer's instructions.
Reduced calpain activation in muscle tissue and reduced muscle tissue damage due to calstabin1 rebinding: One possible mechanism by which calcium released by leaky RyR1 channels impairs exercise performance is the activation of a member of the calpain family of Ca^2+-dependent neutral proteases, which are known to be responsible for muscle damage in a number of pathophysiological states. […] Calpain activity in muscle homogenates was assessed by means of the degradation of the synthetic calpain substrate Suc-LLVY-AMC, which fluoresces upon cleavage by calpain.

[6] = system: calpain; assay: Calpain activity in mdx mouse muscular dystrophy model during exercise; type: in vivo; details: mdx mice, 0.125 mg/kg/h for 28 days, downhill treadmill
Procedure: After treatment, the mice were subjected to downhill (14° angel) treadmill running for 30 min at 18 m/min. Immediately after the exercise, the animals were sacrificed and the skeletal muscles were harvested.
Preparation of EDL Homogenates: EDL muscles homogenates were prepared in 0.5 ml of homogenization buffer (20 mM NaF, 10 mM Tris-maleate, pH7.2+protease inhibitors). […] sarcoplasmic reticulum (CSR) fractions were obtained by centrifuging the homogenates at 50,000×g for 30 min. Homogenates were centrifuged at 4000×g for 20 min and the supernatants were centrifuged for 20 min at 10000×g. Aliquots of the homogenates were assayed for protein concentration and stored at −80° C.
Calpain Activity Assay: Calpain activity of EDL homogenates (30 μg) were measured using a Calpain Activity Assay kit (Calbiochem). The assay utilizes a synthetic calpain substrate, suc-LLVY-AMC. AMC is released upon cleavage with calpain and is measured fluorometrically. Assays are performed with both an activation and an inhibition buffer to determine specific calpain activity in the sample.

[7] = system: C57BL/6J mice; assay: Morris water maze spatial learning in exercised mice; type: in vivo, mouse; details: end of 21-day testing period, p approximately 0.2, n=8
Procedure: 16 wild type C57BL/6J 3-month-old mice, pairwise-matched for sex, age, and body weight, were randomized to either S 107 treatment (10 mg/ml; 0.25 μl/hr subcutaneous osmotic pump) or “vehicle” (25% DMSO in dH2O) treatment groups.
Mice were sacrificed after 21 days for performing biochemistry, calcium imaging and ex vivo function studies.
The layout of the water maze system consists of a circular water tank divided into four quadrants (labeled 1 thru 4 in FIG. 58, with four hidden platforms (labeled 5 to 8 in FIG. 58). The following protocol was followed: Day 1: mice trained to find “hidden” platform with visible marker on platform from random starting location. On days 2-4, the visible cue was removed, and mice were repeatedly challenged to find hidden platform at target 5 in quadrant 1. The time taken for each mouse to reach the target, i.e. the “latency,” was recorded. On day 5, the previous day's protocol was repeated, then the hidden platform was removed, and each mouse's movements recorded to quantify time in various target regions. The protocol was repeated in week 2.
The platform was then removed, and the swimming pattern of the mice was assessed at the end of the 21-day testing period.

SMILES: COc1ccc2c(c1)CN(C(=O)C(=O)O)CCS2 [S36]
- block of L-type Ca2+ channel current (ICa,L) [1]: does not block
- Heart weight to body weight (HW/BW) ratio [2]: reverse remodeling
- pressure-volume loop quantification (dP/dt) [2]: improved cardiac contractility
- calstabin1 bound to RyR1 [3]: allows RyR1 to rebind calstabin1

SMILES: COc1ccc2c(c1)CN(C)CCS2 [S107]
- effect on L-type calcium channel current [4]: not to affect
- plasma CPK activity levels [5]: reduced close to the levels observed in sedentary controls
- calpain activity [6]: reduces calpain activity
- learning / persistence in Morris water maze probe [7]: trend towards improved learning or increased persistence
